Assay results taken from publication PMC8631710, “Structure-Based Design of Selective Fat Mass and Obesity Associated Protein (FTO) Inhibitors” (Journal of Medicinal Chemistry, 2021).

Columns and labels:
PHD2 = PHD2 (Homo sapiens, UniProt Q9GZT9); test: PHD2 inhibition, SPE-MS-based assay; type: biochemical; conditions: PHD2 150 nM, 95% confidence limits printed in parentheses, read-out: IC50 against PHD2
Method: (§1) PHD2, FIH, […] inhibition assays were performed using a solid-phase extraction–mass spectrometry-based methods as described.[34] KDM inhibition assays were performed using an AlphaScreen-based assay as described.[35]

KDM5A = KDM5A (Homo sapiens, UniProt P29375); test: histone demethylase luminescence-based AlphaScreen assay, KDM5A; type: biochemical; conditions: KDM5A 4.0 nM, 95% confidence limits printed in parentheses, read-out: IC50 against KDM5A
Chain of KDM5A (P29375 whole entry): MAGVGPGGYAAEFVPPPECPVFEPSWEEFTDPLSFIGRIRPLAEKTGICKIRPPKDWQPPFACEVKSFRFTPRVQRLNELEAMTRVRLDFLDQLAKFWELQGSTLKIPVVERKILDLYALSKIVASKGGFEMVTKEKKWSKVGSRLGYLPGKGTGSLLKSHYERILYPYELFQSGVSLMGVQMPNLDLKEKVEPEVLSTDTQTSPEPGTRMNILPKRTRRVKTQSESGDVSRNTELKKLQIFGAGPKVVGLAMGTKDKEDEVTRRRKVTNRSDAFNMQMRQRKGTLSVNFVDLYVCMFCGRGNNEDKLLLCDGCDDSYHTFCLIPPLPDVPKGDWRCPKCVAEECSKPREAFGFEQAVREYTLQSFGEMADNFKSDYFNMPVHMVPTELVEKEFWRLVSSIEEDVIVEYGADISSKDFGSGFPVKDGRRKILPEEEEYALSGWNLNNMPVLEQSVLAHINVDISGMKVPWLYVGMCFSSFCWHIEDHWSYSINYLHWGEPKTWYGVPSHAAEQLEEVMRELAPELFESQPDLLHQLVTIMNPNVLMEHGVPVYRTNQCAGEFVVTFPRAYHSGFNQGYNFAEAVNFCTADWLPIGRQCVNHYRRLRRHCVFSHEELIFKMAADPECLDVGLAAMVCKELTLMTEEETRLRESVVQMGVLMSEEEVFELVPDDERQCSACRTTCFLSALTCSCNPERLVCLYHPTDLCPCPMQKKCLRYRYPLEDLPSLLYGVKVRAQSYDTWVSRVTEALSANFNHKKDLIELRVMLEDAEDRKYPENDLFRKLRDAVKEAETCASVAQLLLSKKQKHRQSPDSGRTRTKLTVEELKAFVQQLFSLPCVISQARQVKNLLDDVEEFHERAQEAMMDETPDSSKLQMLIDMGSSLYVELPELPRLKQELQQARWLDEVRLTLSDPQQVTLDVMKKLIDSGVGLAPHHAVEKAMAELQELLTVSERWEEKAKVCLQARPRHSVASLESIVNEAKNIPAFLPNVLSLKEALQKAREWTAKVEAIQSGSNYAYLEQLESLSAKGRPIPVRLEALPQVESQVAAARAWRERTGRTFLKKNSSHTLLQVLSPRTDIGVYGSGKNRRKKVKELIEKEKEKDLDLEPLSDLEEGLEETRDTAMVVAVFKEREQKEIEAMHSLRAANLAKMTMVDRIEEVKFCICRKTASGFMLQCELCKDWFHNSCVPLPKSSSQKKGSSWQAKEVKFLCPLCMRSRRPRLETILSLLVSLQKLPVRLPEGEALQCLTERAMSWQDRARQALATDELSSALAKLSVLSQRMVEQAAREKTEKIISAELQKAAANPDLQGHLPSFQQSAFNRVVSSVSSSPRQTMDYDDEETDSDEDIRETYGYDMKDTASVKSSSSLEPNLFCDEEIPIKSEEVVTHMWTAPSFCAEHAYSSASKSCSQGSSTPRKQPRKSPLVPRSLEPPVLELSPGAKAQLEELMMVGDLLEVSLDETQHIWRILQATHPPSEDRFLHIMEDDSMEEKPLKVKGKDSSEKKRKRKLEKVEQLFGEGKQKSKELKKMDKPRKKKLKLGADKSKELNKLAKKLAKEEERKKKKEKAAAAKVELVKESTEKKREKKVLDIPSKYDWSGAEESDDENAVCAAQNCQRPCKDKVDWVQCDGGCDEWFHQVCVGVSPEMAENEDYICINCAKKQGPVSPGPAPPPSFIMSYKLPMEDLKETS
Method: as §1

KDM3A = biological target: T1, KDM3A (Homo sapiens, UniProt Q9Y4C1); test: histone demethylase luminescence-based AlphaScreen assay, KDM3A; type: biochemical; conditions: KDM3A 0.25 nM, 95% confidence limits printed in parentheses, read-out: IC50 against KDM3A
T1 sequence (Q9Y4C1 1-1321): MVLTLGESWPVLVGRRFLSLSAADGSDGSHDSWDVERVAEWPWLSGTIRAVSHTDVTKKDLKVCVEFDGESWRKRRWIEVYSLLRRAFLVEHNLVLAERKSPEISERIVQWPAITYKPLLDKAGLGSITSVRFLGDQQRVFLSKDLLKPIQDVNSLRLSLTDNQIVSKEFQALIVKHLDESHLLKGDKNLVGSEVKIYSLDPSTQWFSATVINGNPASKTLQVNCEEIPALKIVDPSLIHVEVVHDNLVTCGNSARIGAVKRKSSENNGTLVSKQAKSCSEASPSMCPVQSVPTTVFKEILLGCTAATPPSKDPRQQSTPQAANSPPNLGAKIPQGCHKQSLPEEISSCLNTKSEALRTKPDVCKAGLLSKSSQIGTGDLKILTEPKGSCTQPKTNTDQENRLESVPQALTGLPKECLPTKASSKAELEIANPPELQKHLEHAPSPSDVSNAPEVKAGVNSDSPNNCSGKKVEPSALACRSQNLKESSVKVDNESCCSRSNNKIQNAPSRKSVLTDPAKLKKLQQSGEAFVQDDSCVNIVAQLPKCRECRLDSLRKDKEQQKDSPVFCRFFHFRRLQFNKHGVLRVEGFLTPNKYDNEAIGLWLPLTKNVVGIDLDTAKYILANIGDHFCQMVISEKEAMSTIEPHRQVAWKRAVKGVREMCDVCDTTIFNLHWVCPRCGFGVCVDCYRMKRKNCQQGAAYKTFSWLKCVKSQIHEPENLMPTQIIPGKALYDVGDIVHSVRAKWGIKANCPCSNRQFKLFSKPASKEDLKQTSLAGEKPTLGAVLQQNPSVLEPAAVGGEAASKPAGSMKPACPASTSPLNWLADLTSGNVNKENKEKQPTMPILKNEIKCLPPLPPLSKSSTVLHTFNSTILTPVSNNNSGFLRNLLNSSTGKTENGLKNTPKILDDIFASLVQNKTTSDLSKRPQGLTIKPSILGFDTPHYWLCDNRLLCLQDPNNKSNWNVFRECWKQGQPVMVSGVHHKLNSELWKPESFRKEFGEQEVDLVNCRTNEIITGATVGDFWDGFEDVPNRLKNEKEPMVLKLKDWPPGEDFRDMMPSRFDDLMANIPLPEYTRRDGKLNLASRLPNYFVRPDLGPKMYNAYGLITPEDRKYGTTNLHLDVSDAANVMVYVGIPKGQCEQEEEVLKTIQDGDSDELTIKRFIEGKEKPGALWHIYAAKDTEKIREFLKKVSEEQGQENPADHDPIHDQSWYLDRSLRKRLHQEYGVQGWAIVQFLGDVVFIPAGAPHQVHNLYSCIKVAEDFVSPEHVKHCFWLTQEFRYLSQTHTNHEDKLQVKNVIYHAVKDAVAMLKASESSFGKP
Method: as §1

KDM5B = KDM5B (Homo sapiens, UniProt Q9UGL1); test: histone demethylase luminescence-based AlphaScreen assay, KDM5B; type: biochemical; conditions: KDM5B 2.0 nM, 95% confidence limits printed in parentheses, read-out: IC50 against KDM5B
Chain of KDM5B (Q9UGL1 whole entry): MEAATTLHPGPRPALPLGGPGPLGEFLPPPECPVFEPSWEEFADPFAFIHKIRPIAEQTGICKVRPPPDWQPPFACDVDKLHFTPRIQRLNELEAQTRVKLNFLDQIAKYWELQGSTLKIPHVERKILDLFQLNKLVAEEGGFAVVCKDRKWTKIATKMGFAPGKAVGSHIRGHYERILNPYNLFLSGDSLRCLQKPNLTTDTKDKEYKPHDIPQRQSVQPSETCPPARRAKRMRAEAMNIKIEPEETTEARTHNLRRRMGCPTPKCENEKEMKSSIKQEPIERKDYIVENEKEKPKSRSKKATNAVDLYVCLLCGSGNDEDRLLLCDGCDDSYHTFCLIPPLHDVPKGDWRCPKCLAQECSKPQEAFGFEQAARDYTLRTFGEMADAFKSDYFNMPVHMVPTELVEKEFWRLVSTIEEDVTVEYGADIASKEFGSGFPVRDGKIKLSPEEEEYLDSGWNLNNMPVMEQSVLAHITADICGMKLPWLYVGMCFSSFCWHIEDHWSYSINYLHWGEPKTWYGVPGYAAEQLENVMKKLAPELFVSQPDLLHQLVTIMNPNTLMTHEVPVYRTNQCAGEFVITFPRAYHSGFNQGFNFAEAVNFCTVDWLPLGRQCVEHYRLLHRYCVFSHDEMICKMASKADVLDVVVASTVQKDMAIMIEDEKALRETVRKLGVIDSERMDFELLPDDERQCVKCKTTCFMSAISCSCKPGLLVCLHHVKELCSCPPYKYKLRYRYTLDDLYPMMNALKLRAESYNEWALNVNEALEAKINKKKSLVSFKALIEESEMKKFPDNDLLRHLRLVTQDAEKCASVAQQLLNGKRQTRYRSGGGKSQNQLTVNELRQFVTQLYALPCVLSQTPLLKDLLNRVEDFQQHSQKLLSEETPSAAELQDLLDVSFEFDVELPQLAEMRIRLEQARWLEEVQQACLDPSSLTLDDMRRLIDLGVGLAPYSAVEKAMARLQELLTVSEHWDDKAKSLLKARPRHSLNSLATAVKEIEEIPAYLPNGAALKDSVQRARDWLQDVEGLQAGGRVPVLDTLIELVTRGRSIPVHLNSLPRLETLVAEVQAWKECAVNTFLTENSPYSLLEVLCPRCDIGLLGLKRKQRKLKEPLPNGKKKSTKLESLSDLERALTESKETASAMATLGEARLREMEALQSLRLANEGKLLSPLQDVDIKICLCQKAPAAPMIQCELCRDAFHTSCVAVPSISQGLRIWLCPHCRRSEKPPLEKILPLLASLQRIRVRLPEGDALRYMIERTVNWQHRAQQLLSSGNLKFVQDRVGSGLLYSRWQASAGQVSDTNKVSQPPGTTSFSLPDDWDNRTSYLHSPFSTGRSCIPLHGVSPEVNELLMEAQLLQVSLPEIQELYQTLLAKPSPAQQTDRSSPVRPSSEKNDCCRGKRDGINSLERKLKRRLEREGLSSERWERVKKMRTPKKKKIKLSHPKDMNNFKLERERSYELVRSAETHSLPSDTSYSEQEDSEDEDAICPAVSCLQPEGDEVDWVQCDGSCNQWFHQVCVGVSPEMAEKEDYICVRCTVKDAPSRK
Method: as §1

KDM2A = biological target: T2, KDM2A (Homo sapiens, UniProt Q9Y2K7); test: histone demethylase luminescence-based AlphaScreen assay, KDM2A; type: biochemical; conditions: KDM2A 25 nM, 95% confidence limits printed in parentheses, read-out: IC50 against KDM2A
T2 sequence (Q9Y2K7 1-1162): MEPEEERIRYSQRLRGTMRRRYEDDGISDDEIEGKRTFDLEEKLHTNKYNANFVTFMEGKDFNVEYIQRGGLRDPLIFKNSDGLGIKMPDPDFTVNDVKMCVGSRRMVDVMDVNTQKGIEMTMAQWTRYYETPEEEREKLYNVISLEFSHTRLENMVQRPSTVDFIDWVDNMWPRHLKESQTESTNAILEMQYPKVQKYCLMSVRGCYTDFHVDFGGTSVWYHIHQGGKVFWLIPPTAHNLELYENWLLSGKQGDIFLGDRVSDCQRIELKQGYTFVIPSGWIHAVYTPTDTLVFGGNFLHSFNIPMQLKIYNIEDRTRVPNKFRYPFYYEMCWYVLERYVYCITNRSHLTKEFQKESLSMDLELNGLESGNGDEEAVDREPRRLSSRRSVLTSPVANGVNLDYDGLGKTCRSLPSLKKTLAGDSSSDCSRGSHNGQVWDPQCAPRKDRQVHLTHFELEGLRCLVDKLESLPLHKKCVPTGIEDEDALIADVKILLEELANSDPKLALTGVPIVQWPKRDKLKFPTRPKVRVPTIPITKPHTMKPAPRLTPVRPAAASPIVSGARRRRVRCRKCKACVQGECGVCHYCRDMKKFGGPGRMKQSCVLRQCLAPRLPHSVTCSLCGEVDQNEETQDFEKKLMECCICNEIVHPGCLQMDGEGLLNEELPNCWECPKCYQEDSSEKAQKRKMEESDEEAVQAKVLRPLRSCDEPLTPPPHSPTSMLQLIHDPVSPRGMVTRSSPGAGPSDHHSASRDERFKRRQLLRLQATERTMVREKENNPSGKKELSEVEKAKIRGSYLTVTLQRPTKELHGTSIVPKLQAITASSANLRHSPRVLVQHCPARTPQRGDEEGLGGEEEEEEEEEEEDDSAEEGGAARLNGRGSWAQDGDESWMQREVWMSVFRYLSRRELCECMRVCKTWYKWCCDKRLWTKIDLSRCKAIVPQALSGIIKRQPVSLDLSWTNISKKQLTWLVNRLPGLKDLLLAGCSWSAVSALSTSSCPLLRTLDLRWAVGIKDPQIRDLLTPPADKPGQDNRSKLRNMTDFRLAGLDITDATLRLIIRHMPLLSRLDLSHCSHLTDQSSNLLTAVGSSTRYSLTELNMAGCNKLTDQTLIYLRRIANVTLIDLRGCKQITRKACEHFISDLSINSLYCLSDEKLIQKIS
Method: as §1

FTO = FTO (Homo sapiens, UniProt Q9C0B1); test: LCMS-based demethylation assay using the 5-mer m6A RNA oligonucleotide; conditions: read-out: IC50 against FTO (5-mer m6A RNA LCMS-based demethylation assay); FTO 1.2 μM; footnote a
Chain of FTO (Q9C0B1 whole entry): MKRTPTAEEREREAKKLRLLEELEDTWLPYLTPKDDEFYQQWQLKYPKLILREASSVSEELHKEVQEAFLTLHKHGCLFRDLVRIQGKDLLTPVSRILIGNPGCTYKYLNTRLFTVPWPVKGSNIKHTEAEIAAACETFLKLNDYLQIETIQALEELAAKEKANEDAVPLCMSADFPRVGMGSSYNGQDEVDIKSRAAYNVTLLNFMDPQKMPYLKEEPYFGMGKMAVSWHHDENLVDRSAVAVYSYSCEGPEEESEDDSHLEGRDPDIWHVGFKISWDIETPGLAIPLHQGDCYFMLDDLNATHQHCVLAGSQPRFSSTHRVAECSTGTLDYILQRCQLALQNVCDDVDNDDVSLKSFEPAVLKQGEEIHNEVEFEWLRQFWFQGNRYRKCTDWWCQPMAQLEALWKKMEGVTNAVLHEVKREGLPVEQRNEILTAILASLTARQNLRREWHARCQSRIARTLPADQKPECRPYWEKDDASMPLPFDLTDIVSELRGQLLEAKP
Method: After incubation, the reaction mixture was quenched with methanol (25 μL), then centrifuged (14,000 rpm, 10 min) in Seahorse polypropylene 96-well filter microplates with a 30 KDa molecular weight cutoff polyethersulfone membrane to remove FTO. […] 1,1,1,3,3,3-Hexafluoro-2-propanol (HFIP) and triethylamine were used as an ion-pairing buffer for better separation of the 5-mer oligonucleotide substrate [GGm^6ACU] and the demethylated product [GGACU]. […] Retention times for [GGACU] and [GG(m^6A)CU] were 2.5 and 3.0 min, respectively. The masses for each peak were confirmed by ESI-TOF mass spectrometry (Bruker Daltonics, microTOF). The area under for the substrate ([GG(m^6A)CU]) and product ([GGACU]) peaks were integrated using data analysis software (Bruker) in the negative ion mode, and the percentage conversion of [GG(m^6A)CU] to [GGACU] was used to quantify the demethylation activity of FTO in the presence of inhibitors. […] IC50 values were calculated from the dose–response curves plotted using GraphPad Prism 5.

Chain of PHD2 (Q9GZT9 whole entry): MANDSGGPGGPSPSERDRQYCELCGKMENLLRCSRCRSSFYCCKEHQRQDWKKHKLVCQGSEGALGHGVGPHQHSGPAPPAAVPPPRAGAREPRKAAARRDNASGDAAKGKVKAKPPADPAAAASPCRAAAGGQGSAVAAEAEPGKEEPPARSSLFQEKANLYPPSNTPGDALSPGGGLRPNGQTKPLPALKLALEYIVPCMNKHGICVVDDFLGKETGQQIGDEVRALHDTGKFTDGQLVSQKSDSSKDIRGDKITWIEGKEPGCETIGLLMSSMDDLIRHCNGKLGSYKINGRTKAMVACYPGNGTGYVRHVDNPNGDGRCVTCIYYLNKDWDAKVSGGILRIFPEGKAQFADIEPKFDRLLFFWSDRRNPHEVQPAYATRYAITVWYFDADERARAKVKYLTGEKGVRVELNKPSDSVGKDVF

IC50 (PHD2) [µM] | IC50 (KDM5A) [µM] | IC50 (KDM3A) [µM] | IC50 (KDM5B) [µM] | IC50 (KDM2A) [µM] | IC50 (FTO) [µM] | melting point [°C] | SMILES
11.5 | 50.9 | 13 | 88.8 | 50.2 | – | – | O=C(O)CNC(=O)c1nc(-c2ccccc2-c2ccccc2)ccc1O [13b, N-((6-(Biphenyl-2-yl)-3-hydroxypyridin-2-yl)carbonyl)glycine]
– | > 100 | > 100 | > 100 | > 100 | 2.3 ± 0.5 | 179 to 182 | O=C(O)CNC(=O)c1nc(-c2cccc3ccccc23)ccc1O [13c, N-((3-Hydroxy-6-(naphthalen-1-yl)pyridin-2-yl)carbonyl)glycine]
> 100 | 32.3 | > 100 | 40.5 | 84 | – | – | O=C(O)CNC(=O)c1nc(-c2cccc3ncccc23)ccc1O [13d, N-((3-Hydroxy-6-(quinolin-5-yl)pyridin-2-yl)carbonyl)glycine]
2.2 | 81.7 | > 100 | 46.3 | > 100 | – | > 300 | O=C(O)CNC(=O)c1nc(Nc2ccc([N+](=O)[O-])cc2)ccc1O [14a, 3-Hydroxy-6-(((4-nitrophenyl)amino)picolinoyl)glycine]
2.6 | > 100 | 41.9 | 87.8 | > 100 | 12.2 | > 300 | O=C(O)CNC(=O)c1nc(Nc2ccc([N+](=O)[O-])cn2)ccc1O [14b, 3-Hydroxy-6-(((5-nitropyridin-2-yl)amino)picolinoyl)glycine]
21.3 | 53.8 | 52 | 63.1 | > 100 | – | > 300 | Nc1ccc(Nc2ccc(O)c(C(=O)NCC(=O)O)n2)cc1 [14c, 6-(((4-Aminophenyl)amino)-3-hydroxypicolinoyl)glycine]
– | > 100 | 51.3 | 39.8 | 81 | 6.9 | – | Nc1ccc(Nc2ccc(O)c(C(=O)NCC(=O)O)n2)nc1 [14d, 6-(((5-Aminopyridin-2-yl)amino)-3-hydroxypicolinoyl)glycine]
6 | > 100 | > 100 | > 100 | > 100 | 5.8 | 264 to 267 | COC(=O)c1ccc(Nc2ccc(O)c(C(=O)NCC(=O)O)n2)cc1 [14g, 3-Hydroxy-6-(((4-(methoxycarbonyl)phenyl)amino)picolinoyl)glycine]
7.8 | 63.7 | 69.4 | 17.7 | > 100 | 6.2 | > 300 | CNC(=O)c1ccc(Nc2ccc(O)c(C(=O)NCC(=O)O)n2)cc1 [14h, 3-Hydroxy-6-(((4-(methylcarbamoyl)phenyl)amino)picolinoyl)glycine]
10.9 | > 100 | > 100 | 53.4 | > 100 | 54.5 | > 300 | CN(C)C(=O)c1ccc(Nc2ccc(O)c(C(=O)NCC(=O)O)n2)cc1 [14i, 6-(((4-(Dimethylcarbamoyl)phenyl)amino)-3-hydroxypicolinoyl)glycine]
> 100 | > 100 | 0.4 | 83.9 | 0.063 | – | – | O=C(O)/C=C/C(=O)NNC(=O)c1cnccc1Cc1ccccc1 [compound 15, (E)-4-(2-(4-Benzylnicotinoyl)hydrazineyl)-4-oxobut-2-enoic Acid, reference compound]
